{
  "source": "patent US6350743B1",
  "about": "“Cytotoxic pyridoacridine alkaloids” (Instituto Biomar, S.A., priority 1997, dated 2002)",
  "type_in_all_cases": "cell-based",
  "key": {"[1]": {"system": "P-388 (suspension culture of a lymphoid neoplasm from DBA/2 mouse)", "assay": "Antitumor screening, P-388 cell growth", "conditions": "P388, 72 h, P-388 cells, three days of incubation, approximate IC50 vs control growth", "method": "(§1) Cells were maintained in logarithmic phase of growth in Eagle's Minimum Essential Medium, with Earle's Balanced Salts, with 2.0 mM L-glutamine, with non-essential amino acids, without sodium bicarbonate (EMEM/neaa); supplemented with 10% Fetal Calf Serum (FCS), 10^−2 M sodium bicarbonate and 0.1 g/l penicillin+G streptomycin sulfate.\n(§2) A screening procedure has been carried out to determine and compare the antitumor activity of these compounds, using an adapted form of the method described by Bergeron et al. (Reference 15: Raymond J. Bergeron, Paul F. Cavanaugh, Jr., Steven J. Kline, Robert G. Hughes, Jr., Gary T. Elliot and Carl W. Porter. Antineoplastic and antiherpetic activity of spermidine catecholamide iron chelators. Biochem. Bioph. Res. Comm. 1984, 121, 848-854). The antitumor cells employed were P-388 (suspension culture of a lymphoid neoplasm from DBA/2 mouse), A-549 (monolayer culture of a human lung carcinoma), HT-29 (monolayer culture of a human colon carcinoma) and MEL-28 (monolayer culture of a human melanoma).\nP-388 cells were seeded into 16 mm wells at 1×10^4 cells per well in 1 ml aliquots of MEM 5FCS containing the indicated concentration of drug. A separate set of cultures without drug was seeded as control growth to ensure that cells remained in exponential phase of growth. All determinations were carried out in duplicate. […]"}, "[2]": {"system": "HT-29 (monolayer culture of a human colon carcinoma)", "assay": "Antitumor screening, HT-29 cell growth (Crystal Violet)", "conditions": "72 h, HT-29 cells, three days of incubation, approximate IC50", "method": "as §1, §2\n(§3) A-549, HT-29 cells were seeded into 16 mm wells at 2×10^4 cells per well in 1 ml aliquots of MEM 10FCS containing the indicated concentration of drug. […] An approximately IC50 was determined by comparing the growth in wells with drug to the growth in wells control."}, "[3]": {"system": "MEL-28 (monolayer culture of a human melanoma)", "assay": "Antitumor screening, MEL-28 cell growth", "conditions": "SK-MEL-28, MEL-28 cells, approximate IC50", "method": "as §1, §2, §3"}, "[4]": {"system": "A-549 (monolayer culture of a human lung carcinoma)", "assay": "Antitumor screening, A-549 cell growth (Crystal Violet)", "conditions": "A549, 72 h, A-549 cells, three days of incubation, approximate IC50", "method": "as §1, §2, §3"}},
  "data": [
    {"smiles": "CN(C)CCc1c2c(c3nccc4c3c1Nc1ccccc1-4)NC(=O)CS2", "note": "[Shermilamine D]", "values": [
      {"measurement": "IC50", "setting": "[1]", "value": 1.33, "unit": "µM"},
      {"measurement": "IC50", "setting": "[2]", "value": 2.66, "unit": "µM"},
      {"measurement": "IC50", "setting": "[3]", "value": 0.53, "unit": "µM"},
      {"measurement": "IC50", "setting": "[4]", "value": 0.27, "unit": "µM"}
    ]}
  ]
}
